Results published in patent publication US11472791B2 (Incyte Corporation, priority 2019, dated 2022).

Biological target: CDK2/Cyclin E1 (Homo sapiens (Human), UniProt P24941)
Assay: CDK2/Cyclin E1 HTRF enzyme activity assay
Format: biochemical
Conditions: 1 mM ATP
Protocol: Assays are conducted in white 384-well polystyrene plates in a final reaction volume of 8 μL. […] HTRF signals are read after 1 hour at room temperature on a PHERAstar FS plate reader (BMG Labtech). Data is analyzed with IDBS XLFit and GraphPad Prism 5.0 software using a three or four parameter dose response curve to determine IC50 for each compound.

IC50, < 0.05 µM:
CC(C)(O)Cn1cc(-c2nc(NC3CCN(S(=O)(=O)CCCN4CCNC(=O)C4)CC3)ncc2C(F)(F)F)cn1 [Example 69, 4-(3-((4-((4-(1-(2-Hydroxy-2-methylpropyl)-1H-pyrazol-4-yl)-5-(trifluoromethyl)pyrimidin-2-yl)amino)piperidin-1-yl)sulfonyl)propyl)piperazin-2-one]
CC(C)(O)Cn1cc(-c2nc(NC3CCN(S(=O)(=O)C4CCC(N5CCC5)CC4)CC3)ncc2C(F)(F)F)cn1 (single isomer, unassigned) [90 (peak 2), 1-(4-(2-((1-((4-(Azetidin-1-yl)cyclohexyl)sulfonyl)piperidin-4-yl)amino)-5-(trifluoromethyl)pyrimidin-4-yl)-1H-pyrazol-1-yl)-2-methylpropan-2-ol]
COC(=O)NC1CCCCC1NCc1ccc(-n2cc(-c3nc(NC4CCN(S(C)(=O)=O)CC4)ncc3C#N)cn2)c(Cl)c1 (stereo not drawn) [Example 166, Methyl (2-((3-chloro-4-(4-(5-cyano-2-((1-(methylsulfonyl)piperidin-4-yl)amino)pyrimidin-4-yl)-1H-pyrazol-1-yl)benzyl)amino)cyclohexyl)carbamate]
CNCc1ccc(-n2cc(-c3nc(N[C@H]4CCN(S(=O)(=O)c5cn(C)cn5)C[C@H]4C)ncc3C(F)(F)F)cn2)c(C)n1 [Example 270, N-((3R,4S)-3-Methyl-1-((1-methyl-1H-imidazol-4-yl)sulfonyl)piperidin-4-yl)-4-(1-(2-methyl-6-((methylamino)methyl)pyridin-3-yl)-1H-pyrazol-4-yl)-5-(trifluoromethyl)pyrimidin-2-amine]
CCNCc1ccc(-n2cc(-c3nc(NC4CCN(S(=O)(=O)c5cn(C)cn5)CC4)ncc3Cl)cn2)c(C)n1 [Example 267, 5-Chloro-4-(1-(6-((ethylamino)methyl)-2-methylpyridin-3-yl)-1H-pyrazol-4-yl)-N-(1-((1-methyl-1H-imidazol-4-yl)sulfonyl)piperidin-4-yl)pyrimidin-2-amine]
Cc1nc(CN2CCN(C)CC2)ccc1-n1cc(-c2nc(NC3CCN(S(=O)(=O)c4cn(C)cn4)CC3)ncc2C(F)(F)F)cn1 [Example 252, N-(1-((1-Methyl-1H-imidazol-4-yl)sulfonyl)piperidin-4-yl)-4-(1-(2-methyl-6-((4-methylpiperazin-1-yl)methyl)pyridin-3-yl)-1H-pyrazol-4-yl)-5-(trifluoromethyl)pyrimidin-2-amine]
Cc1cc(CN2CCN(C)CC2)ccc1-n1cc(-c2nc(NC3CCN(S(=O)(=O)C4CC4)CC3)ncc2C#N)cn1 [Example 242, 2-((1-(Cyclopropylsulfonyl)piperidin-4-yl)amino)-4-(1-(2-methyl-4-((4-methylpiperazin-1-yl)methyl)phenyl)-1H-pyrazol-4-yl)pyrimidine-5-carbonitrile]
CS(=O)(=O)N1CCC(Nc2ncc(C#N)c(-c3cnn(-c4ccc(CN[C@H]5CC[C@@H](S(C)(=O)=O)CC5)cc4Cl)c3)n2)CC1 [Example 185, 4-(1-(2-Chloro-4-((((cis)-4-(methylsulfonyl)cyclohexyl)amino)methyl)phenyl)-1H-pyrazol-4-yl)-2-((1-(methylsulfonyl)piperidin-4-yl)amino)pyrimidine-5-carbonitrile]
CC(C)(O)Cn1cc(-c2nc(NC3CCN(S(=O)(=O)C4CCC(N5CCC5)CC4)CC3)ncc2C(F)(F)F)cn1 (single isomer, unassigned) [90 (peak 1), 1-(4-(2-((1-((4-(Azetidin-1-yl)cyclohexyl)sulfonyl)piperidin-4-yl)amino)-5-(trifluoromethyl)pyrimidin-4-yl)-1H-pyrazol-1-yl)-2-methylpropan-2-ol]
CNCc1ccc(-n2cc(-c3nc(N[C@H]4CCN(S(=O)(=O)C5CC5)C[C@H]4F)ncc3C#N)cn2)c(Cl)c1 [Example 120, 4-(1-(2-Chloro-4-((methylamino)methyl)phenyl)-1H-pyrazol-4-yl)-2-(((3R,4S)-1-(cyclopropylsulfonyl)-3-fluoropiperidin-4-yl)amino)pyrimidine-5-carbonitrile]
CN[C@H]1C[C@H](n2cc(-c3nc(NC4CCN(S(=O)(=O)c5ccccn5)CC4)ncc3C(F)(F)F)cn2)C1 [Example 50, 4-(1-((1r,3r)-3-(Methylamino)cyclobutyl)-1H-pyrazol-4-yl)-N-(1-(pyridin-2-ylsulfonyl)piperidin-4-yl)-5-(trifluoromethyl)pyrimidin-2-amine]
CS(=O)(=O)N1CCC(Nc2ncc(C#N)c(-c3cnn(-c4ccc(CNCCN5CCS(=O)(=O)CC5)cc4Cl)c3)n2)CC1 [Example 290, 4-(1-(2-Chloro-4-(((2-(1,1-dioxidothiomorpholino)ethyl)amino)methyl)phenyl)-1H-pyrazol-4-yl)-2-((1-(methylsulfonyl)piperidin-4-yl)amino)pyrimidine-5-carbonitrile]
CS(=O)(=O)N1CCC(Nc2ncc(C#N)c(-c3cnn(-c4ccc(CN[C@H]5CC[C@H](O)CC5)cc4Cl)c3)n2)CC1 [Example 182, 4-(1-(2-Chloro-4-((((1r,4r)-4-hydroxycyclohexyl)amino)methyl)phenyl)-1H-pyrazol-4-yl)-2-((1-(methylsulfonyl)piperidin-4-yl)amino)pyrimidine-5-carbonitrile]
CN1CCN(CCCS(=O)(=O)N2CCC(Nc3ncc(C(F)(F)F)c(-c4cnn(CC(C)(C)O)c4)n3)CC2)CC1=O [Example 70, 4-(3-((4-((4-(1-(2-Hydroxy-2-methylpropyl)-1H-pyrazol-4-yl)-5-(trifluoromethyl)pyrimidin-2-yl)amino)piperidin-1-yl)sulfonyl)propyl)-1-methylpiperazin-2-one]
C[C@H](O)CNCc1ccc(-n2cc(-c3nc(NC4CCN(S(C)(=O)=O)CC4)ncc3C#N)cn2)c(Cl)c1 [Example 292, (S)-4-(1-(2-Chloro-4-(((2-hydroxypropyl)amino)methyl)phenyl)-1H-pyrazol-4-yl)-2-((1-(methylsulfonyl)piperidin-4-yl)amino)pyrimidine-5-carbonitrile]
N#Cc1cnc(NC2CCN(S(=O)(=O)c3ccccn3)CC2)nc1-c1cnn(CC(F)(F)F)c1 [Example 39, 2-((1-(Pyridin-2-ylsulfonyl)piperidin-4-yl)amino)-4-(1-(2,2,2-trifluoroethyl)-1H-pyrazol-4-yl)pyrimidine-5-carbonitrile]
CS(=O)(=O)N1CCC(Nc2ncc(C#N)c(-c3cnn(-c4ccc(CN[C@H]5C[C@H](O)C5)cc4Cl)c3)n2)CC1 [Example 161, 4-(1-(2-Chloro-4-((((1r,3r)-3-hydroxycyclobutyl)amino)methyl)phenyl)-1H-pyrazol-4-yl)-2-((1-(methylsulfonyl)piperidin-4-yl)amino)pyrimidine-5-carbonitrile]
CC(C)(O)Cn1cc(-c2nc(NC3CCN(S(=O)(=O)CCN4CCOCC4)CC3)ncc2C(F)(F)F)cn1 [Example 84, 2-Methyl-1-(4-(2-((1-((2-morpholinoethyl)sulfonyl)piperidin-4-yl)amino)-5-(trifluoromethyl)pyrimidin-4-yl)-1H-pyrazol-1-yl)propan-2-ol]
Cc1nc(CNC(C)(C)C)ccc1-n1cc(-c2nc(NC3CCN(S(=O)(=O)c4cn(C)cn4)CC3)ncc2C#N)cn1 [Example 152, 4-(1-(6-((tert-Butylamino)methyl)-2-methylpyridin-3-yl)-1H-pyrazol-4-yl)-2-((1-((1-methyl-1H-imidazol-4-yl)sulfonyl)piperidin-4-yl)amino)pyrimidine-5-carbonitrile]
CCS(=O)(=O)N1CCC(Nc2ncc(C(F)(F)F)c(-c3cnn(CC(C)(C)O)c3)n2)CC1 [Example 53, 1-(4-(2-((1-(Ethylsulfonyl)piperidin-4-yl)amino)-5-(trifluoromethyl)pyrimidin-4-yl)-1H-pyrazol-1-yl)-2-methylpropan-2-ol]
[2H]C([2H])([2H])NCc1ccc(-n2cc(-c3nc(NC4CCN(S(=O)(=O)c5cn(C)cn5)CC4)ncc3Cl)cn2)c(C)c1 [Example 136, 5-Chloro-N-(1-((1-methyl-1H-imidazol-4-yl)sulfonyl)piperidin-4-yl)-4-(1-(2-methyl-4-(((methyl-d3)amino)methyl)phenyl)-1H-pyrazol-4-yl)pyrimidin-2-amine]
CN(C)C1CCC(S(=O)(=O)N2CCC(Nc3ncc(C(F)(F)F)c(-c4cnn(CC(C)(C)O)c4)n3)CC2)CC1 (single isomer, unassigned) [88 (peak 1), 1-(4-(2-((1-((4-(Dimethylamino)cyclohexyl)sulfonyl)piperidin-4-yl)amino)-5-(trifluoromethyl)pyrimidin-4-yl)-1H-pyrazol-1-yl)-2-methylpropan-2-ol]
CS(=O)(=O)N1CCC(Nc2ncc(C#N)c(-c3cnn(-c4ccc(CN[C@@H]5CC[C@@H](O)C5)cc4Cl)c3)n2)CC1 [Example 189, 4-(1-(2-Chloro-4-((((1R,3R)-3-hydroxycyclopentyl)amino)methyl)phenyl)-1H-pyrazol-4-yl)-2-((1-(methylsulfonyl)piperidin-4-yl)amino)pyrimidine-5-carbonitrile]
CCS(=O)(=O)N1CCC(Nc2ncc(C#N)c(-c3cnn(-c4ccc(CN[C@H]5CC[C@@](C)(O)CC5)cc4Cl)c3)n2)CC1 [Example 175, 4-(1-(2-Chloro-4-((((1s,4s)-4-hydroxy-4-methylcyclohexyl)amino)methyl)phenyl)-1H-pyrazol-4-yl)-2-((1-(ethylsulfonyl)piperidin-4-yl)amino)pyrimidine-5-carbonitrile]
